# Reference: EP0305845A1, “Pyridyl ethanol amines, pharmaceutical compositions containing them and processes for their preparation” (Dr. Karl Thomae GmbH, priority 1987, dated 1989)
# Counter-ions that a name gives are not always drawn.
# Columns and labels:
# Assay type in all cases: in vivo
# Mäusen [1] = experiment: Cardiac side effects: heart rate in mice by ECG-triggered tachograph; details: 1 hour after application
# Text: Das Auftreten von unerwünschten Nebenwirkungen auf das Herz konnte für die erfindungsgemäßen Verbindungen für den therapeutisch angestrebten stoffwechselaktiven Dosisbereich ausgeschlossen werden. Als Nachweis diente die Messung der Herzfrequenz an Mäusen während der Testung auf blutzuckersenkende Wirkung (s.o.). Eine Stunde nach der oralen Applikation der Verbindungen wurde die Herzfrequenz mittels EKG-getriggertem Tachographen bestimmte. Die nachfolgende Tabelle gibt die Änderung der Herzfrequenz in % der Kontrollgruppe wieder.
# [2] = system: weiblichen Mäusen eigener Zucht; experiment: Antiadipose effect a): increase of lipolysis measured as rise of serum glycerol in mice; details: same procedure as the blood glucose test
# Text: (§1) Die antidiabetische Wirkung der erfindungsgemäßen Verbindungen läßt sich als eine blutzuckersenkende Wirkung bei Versuchstieren messen. Die zu untersuchenden Substanzen wurden dazu in 1,5%iger Methylzellulose suspendiert und weiblichen Mäusen eigener Zucht mittels Schlundsonde appliziert. 30 Minuten später wurde 1 g Glukose pro kg Körpergewicht in Wasser gelöst und subkutan appliziert. Weitere 30 Minuten später wurde aus dem retroorbitalen Venenplexus Blut entnommen. Aus dem Serum wurde Glukose mit der Hexokinase-Methode mit Hilfe eines Analysenphotometers bestimmt.
# Die antiadipöse Wirkung der erfindungsgemäßen Verbindungen wurde in zwei Versuchsanordnungen nachgewiesen: a) In der ersten Versuchsanordnung wurde die Steigerung der Lipolyse am Anstieg des Glyzerins im Serum gemessen. Der Versuchsablauf ist identisch mit der zur Testung auf blutzuckersenkende Wirkung vorstehend beschriebenen Versuchsanordnung. Glyzerin wurde in einem kombinierten enzymatisch-kolorimetrischen Test mit Hilfe eines Analysenphotometers bestimmt. Die Ergebnisse sind in der nachfolgenden Tabelle in % einer mitgeführten Kontrollgruppe aufgeführt.
# [3] = system: weiblichen Mäusen eigener Zucht; experiment: Antidiabetic effect: blood glucose lowering after subcutaneous glucose load in mice; details: 1 g/kg glucose s.c. 30 min later, serum glucose after a further 30 min
# Text: as §1
# In der nachstehenden Tabelle sind die bei dieser Versuchsanordnung beobachteten Blutzuckersenkungen in % einer mitgeführten Kontrollgruppe zusammengestellt. Die statistische Auswertung erfolgt nach dem t-Test nach Student mit p=0,05 als Signifikanzgrenze.
# Mäusen [4] = experiment: Antiadipose effect b): decrease of ovarian fat tissue weight in mice; details: dose 0,3 mg/kg once daily by gavage; fat tissue weighed on day 5
# Text: b) In der zweiten Versuchsanordnung zur Erfassung antiadipö-ser Wirkung der erfindungsgemäßen Verbindungen wurde die Abnahme des Fettgewebes am Beispiel des Ovarfettgewebes gemessen. Die Verbindungen wurden zu diesem Zwecke Mäusen einmal täglich mittels Schlundsonde in 1,5%iger Methylzellulosesuspension appliziert. Am fünften Tag wurde das Ovarfettgewebe herauspräpariert und gewogen. In der nachfolgenden Tabelle sind die Ergebnisse in % einer mitgeführten Kontrollgruppe wiedergegeben.
# [5] = dose 0,3 mg/kg oral, values in ( ) = not significant (p > 0.05)
compound,measurement,setting,value
"CC(Cc1ccc(OCCO)cc1)NCC(O)c1cccc(Cl)n1 (stereo not drawn) [Beispiel 2, N-[2-(4-(2-Hydroxyethoxy)phenyl)-1-methylethyl]-2-hydroxy-2-(6-chlor-pyridin-2-yl)ethanamin-hydrochlorid]","Änderung der Herzfrequenz, % Änderung vom Wert der Kontrollgruppe",Mäusen [1]; [5],"(+6,9) %"
same,"Anstieg des Glyzerins im Serum, % Änderung vom Wert der Kontrollgruppe","[2]; dose 0,1 mg/kg by gavage",+454%
same,"Blutzuckersenkungen, % Änderung vom Wert der Kontrollgruppe","[3]; dose 0,1 mg/kg by gavage",-64%
"CC(Cc1ccc(OCC(=O)O)cc1)NCC(O)c1cccc(Cl)n1 (single isomer, unassigned) [Beispiel 4, N-[2-(4-Carboxymethoxyphenyl)-1-methylethyl]-2-hydroxy-2-(6-chlor-pyridin-2-yl)ethanamin]","Anstieg des Glyzerins im Serum, % Änderung vom Wert der Kontrollgruppe","[2]; dose 0,3 mg/kg by gavage",+891%
"CC(Cc1ccc(OCCO)cc1)NCC(O)c1cccc(Cl)n1 (single isomer, unassigned) [Beispiel 5]","Abnahme des Ovarfettgewebes, % Änderung vom Wert der Kontrollgruppe",Mäusen [4],-54%
same,"Änderung der Herzfrequenz, % Änderung vom Wert der Kontrollgruppe",Mäusen [1]; [5],(+27) %
same,"Anstieg des Glyzerins im Serum, % Änderung vom Wert der Kontrollgruppe","[2]; dose 0,3 mg/kg by gavage",+878%
same,"Blutzuckersenkungen, % Änderung vom Wert der Kontrollgruppe","[3]; dose 0,3 mg/kg by gavage",-66%
"COC(=O)COc1ccc(CC(C)NCC(O)c2cccc(Cl)n2)cc1 (stereo not drawn) [Beispiel 1, N-[2-(4-Carbomethoxymethoxyphenyl)-1-methylethyl]-2-hydroxy-2-(6-chlor-pyridin-2-yl)ethanamin-hydrochlorid]","Änderung der Herzfrequenz, % Änderung vom Wert der Kontrollgruppe",Mäusen [1]; dose 10 mg/kg oral,+35%
same,"Anstieg des Glyzerins im Serum, % Änderung vom Wert der Kontrollgruppe","[2]; dose 1,0 mg/kg by gavage",+882%
same,"Blutzuckersenkungen, % Änderung vom Wert der Kontrollgruppe","[3]; dose 1,0 mg/kg by gavage",-66%
"CC(Cc1ccc(OCC(=O)O)cc1)NCC(O)c1cccc(Cl)n1 (stereo not drawn) [Beispiel 3, N-[2-(4-Carboxymethoxyphenyl)-1-methylethyl]-2-hydroxy-2-(6-chlor-pyridin-2-yl)ethanamin]","Anstieg des Glyzerins im Serum, % Änderung vom Wert der Kontrollgruppe","[2]; dose 0,3 mg/kg by gavage",+309%
